ChEMBL document CHEMBL1201862, “PubChem BioAssay data set” (2004)
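Protocol summary: plate cells (96-well), add compound at 5 concentrations, incubate 48 h, interpolate endpoints linearly. GI50: concentration for 50% inhibition of growth.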 Calls of active or inactive are those of the source. Rule as the data show it: active = GI50 up to about 1.1 µM and inactive = higher.

Tests used:
Experiment in all cases: DTP human tumour cell line panel, 48 h
M19-MEL = test system: M19-MEL
RXF 631 = test system: RXF 631
XF498 = test system: XF498
HOP-18 = test system: HOP-18
DMS-273 = test system: DMS-273
KM-20L2 = test system: KM-20L2
LXFL 529 = test system: LXFL 529
SNB-78 = test system: SNB-78

Measured: GI50

CCCCCCCCCCNCCSSCc1ccc(Cl)cc1
inactive: M19-MEL 1.22 µM | RXF 631 1.69 µM | XF498 2.8 µM | HOP-18 > 10 µM | DMS-273 1.4 µM | KM-20L2 1.36 µM | LXFL 529 1.56 µM

O=C1[C@H]2ON(c3ccccc3)C(c3ccccc3F)[C@H]2C(=O)N1c1ccc(Cc2ccc(N3C(=O)[C@@H]4ON(c5ccccc5)C(c5ccccc5F)[C@@H]4C3=O)cc2)cc1 (some centres undefined)
inactive: M19-MEL > 100 µM | SNB-78 > 100 µM | RXF 631 > 100 µM | XF498 > 100 µM | HOP-18 > 100 µM | DMS-273 46.1 µM | KM-20L2 > 100 µM | LXFL 529 > 100 µM

Cn1c(=O)nc2n(-c3cccc(Cl)c3)c3ccccc3nc-2c1=O
inactive: SNB-78 23.7 µM | RXF 631 13.5 µM | XF498 19.9 µM | HOP-18 12.2 µM | DMS-273 9.55 µM | KM-20L2 5.92 µM | LXFL 529 18.6 µM

CC[As](CC)SCC1OC(OC(C)=O)C(OC(C)=O)C(OC(C)=O)C1OC(C)=O (centres undefined)
inactive: M19-MEL 11.8 µM | SNB-78 10.4 µM | RXF 631 2.67 µM | XF498 17.7 µM | HOP-18 16.1 µM | DMS-273 15.6 µM | KM-20L2 18.7 µM | LXFL 529 1.92 µM

CC(C)(C)C(=O)N1C(C(=O)O)Cc2ccccc2[C@@H]1Cc1ccccc1 (some centres undefined)
inactive: M19-MEL > 100 µM | SNB-78 > 100 µM | RXF 631 > 100 µM | XF498 > 100 µM | HOP-18 > 100 µM | DMS-273 > 100 µM | KM-20L2 > 100 µM | LXFL 529 > 100 µM

C/C(CC(=O)CCC(=O)Nc1cccc(C(F)(F)F)c1)=N\NC(=O)NN
inactive: M19-MEL > 100 µM | SNB-78 > 100 µM | RXF 631 > 100 µM | XF498 > 100 µM | HOP-18 > 100 µM | DMS-273 > 100 µM | KM-20L2 > 100 µM | LXFL 529 > 100 µM

NC1=NN(c2ccccc2)C(=O)C1C(=O)C(=O)Nc1cccc(C(F)(F)F)c1 (centres undefined)
inactive: M19-MEL > 100 µM | SNB-78 > 100 µM | RXF 631 > 100 µM | XF498 > 100 µM | HOP-18 67.9 µM | DMS-273 > 100 µM | KM-20L2 > 100 µM | LXFL 529 67.1 µM
